The subject of assay [1] is M. tuberculosis H37Rv::pCHERRY3. It counts as cell-based, Mycobacterium tuberculosis. As to conditions: OD and fluorescence readouts, 5 d, listed as Ambien, 1.
The next assay has as its system replicating Mtb H37Rv. The assay is classed as cell-based. The settings on record: Mycobacterium tuberculosis, read-out: MIC in MABA.

Values after ≈ are worked out from the molar mass of the structure shown.

The term MIC denotes the lowest concentration found to suppress growth. For the molecule `Cc1ccc(-c2nc3ccc(C)cn3c2CC(=O)N(C)C)cc1` [Compound 1, N,N-dimethyl-2-(6-methyl-2-p-tolyl-imidazo[1,2-a]pyridin-3-yl)acetamide], the “MIC Mtb H37Rv 7H9-Tw-OADC” value in assay [1] turned out to be 10 µM (≈ 3.07 µg/mL). For the same molecule, the MIC in the assay with replicating Mtb H37Rv is 49 to 53 µM (≈ 15.1 to 16.3 µg/mL).

The record behind these values is article PMC4426345 (ACS Infectious Diseases, 2014).
